This is an account of results in patent US20230372276A1, “METHODS FOR DELIVERING MEDIUM CHAIN TRIGLYCERIDES WITH CONTROLLED PHARMACOKINETIC, SAFETY AND TOLERABILITY PROFILES” (Cerecin Inc., priority 2020, published 2023).

Data set [1] is described as follows: Ethnicity analysis of total ketone exposure, Chinese vs Caucasian (Study 2 parts combined). Type of data set: in vivo, human (healthy young male Caucasian and Asian volunteers). To be noted: healthy participants. How it is done: The present example investigates the pharmacokinetics, safety and tolerability of tricaprilin in healthy young male Caucasian and Asian volunteers to understand and elucidate any differences between the two populations and any identify any ethnic sensitivities. In this example, data from several studies were analyzed to evaluate any ethnicity differences in safety and tolerability of tricaprilin. The analyzed studies included Caucasian and Asian (Chinese) subjects and several analyses were conducted to compare the effects in Caucasians vs Asian. Ethnic Chinese participants were defined as all four grandparents being Chinese. The level of total ketones were quantitated using a validated LC-MS/MS bioanalytical assay.
Methods: Study 1 was a food effect study of a spray dried formulation of tricaprilin (AC-SD-01), conducted in healthy young males. […] Both of these studies included Caucasian and Asian (Chinese) subjects and several analyses were conducted to compare the effects in Caucasians vs Chinese. To explore whether ethnicity affects total ketone body exposure after tricaprilin administration, the pharmacokinetic parameters AUC0-t and Cmax from Study 2 were examined and grouped by an individual's ethnicity (Chinese or Caucasian).

For data set [2] the following is noted: both, human, in vivo.
Description: The population for this study was 12 healthy older males and females age 50 and above.
Following a Screening period of up to 28 days, eligible subjects arrived at the clinical research unit (CRU) for Check-in on Day −1. On Day 1, subjects had predose samples of plasma serum taken for PK. […] Dose 2 was administered 30 minutes after completion of a standard lunch.
Subjects were to gradually increase the dose according to the titration scheme, aiming to reach a dose of 75 g twice a day.
On Days 15 and 21, subjects had predose and postdose (1, 1.5, and 2 hours) samples of plasma taken for PK. On Day 24, subjects had predose samples of plasma taken for PK. After the first dose on Day 24, 24-hour PK sampling was done to measure ketone body levels (βHB, AcAc). Check-out was on Day 25 following completion of scheduled assessments.
Immediately after dosing, the remaining treatment in the container was rinsed with 60 mL of water and administered to the subject for a total of approximately 300 mL of dosing liquid consumed for each dosing.
Cmax and Tmax were calculated for total ketones, βHB, and AcAc for the Day 15 and Day 21 PK sampling.
The plasma concentrations of βHB, AcAc, and total ketones were listed and summarized by study day and time point for all subjects in the PK Population. Mean and individual concentration-time profiles for Days 15, 21, and 24 were presented on linear and semi-log scales. Linear mean plots were presented with and without SD. Plasma βHB, AcAc and total ketones PK parameters were listed and summarized by study day and dose for all subjects in the PK Population. No inferential statistics were performed on the PK data.

For `CCCCCCCC(=O)OCC(COC(=O)CCCCCCC)OC(=O)CCCCCCC` [tricaprilin], the “Exposure to total ketones, ethnic Chinese compared to Caucasians” value in data set [1] was “no different”. Besides, in data set [2], the “increase of geometric mean Cmax for AcAc” value is 2.3 fold, the “increase of geometric mean Cmax for total ketones” value is reported as 2.7 fold and the “increase of geometric mean Cmax for βHB” value was found to be 2.9 fold.
